Entries after “also recorded” stand apart in the source; their conditions may differ.
How the values were obtained:
[1] = test system: L-type calcium channels (Cav1.3) of SNc dopaminergic neurons; experiment: Whole cell patch clamp recordings of dopaminergic neurons in brain slices (Example 2); format: cell-based, mouse; details: for inhibition of L-type calcium channels: dihydropyridine antagonists, brain slice, FIG. 1 and FIG. 4
SNc DA neurons [2] = experiment: Mito-roGFP imaging of mitochondrial oxidant stress after chronic drug treatment by s.c. osmotic minipumps; format: in vivo, mice; details: for dose dependence of the effect of chronic administration on mitochondrial oxidant stress: 1 week via s.c. osmotic minipump, isradipine 0.03, 0.3, 3 mg/kg/day, rasagiline 1 and 3 mg/kg/day, FIG. 8; for mitochondrial oxidant stress in SNc dopaminergic neurons, chronic treatment: chronic (1 week) s.c. osmotic minipumps, FIG. 7d
SNc DA neurons [3] = details: acute treatment at the time of measurement; FIG. 7c-d
SNc dopaminergic neurons [4] = details: Fluo4 and 2PLSM; FIG. 6
SNc dopaminergic neurons [5] = details: brain slice taken following rasagiline treatment; FIG. 6

| SMILES | inhibition of L-type calcium channels [1] | dose dependence of the effect of chronic administration on mitochondrial oxidant stress (SNc DA neurons [2]) | mitochondrial oxidant stress in SNc dopaminergic neurons, chronic treatment (SNc DA neurons [2]) | further results |
| --- | --- | --- | --- | --- |
| COC(=O)C1=C(C)NC(C)=C(C(=O)OC(C)C)C1c1cccc2nonc12 (stereo not drawn) [isradipine, 3,5-pyridinedicarboxylic acid, 4-(4-benzofurazanyl)-1,4-dihydro-2,6-dimethyl-, methyl 1-methylethyl ester] | inhibited | dose-dependent | diminished | pacemaking during sustained blockade of Cav1.3 channels ([1]; adult SNc dopaminergic neuron, before, during and after application, FIG. 4): restores pacemaking and dopaminergic neuron cell function through an altered pacemaking mechanism |
| COCCOC(=O)C1=C(C)NC(C)=C(C(=O)OC(C)C)C1c1cccc([N+](=O)[O-])c1 (stereo not drawn) [nimodipine, isopropyl 2-methoxyethyl 1,4-dihydro-2,6-dimethyl-4-(m-nitrophenyl)-3,5-pyridinedicarboxylate] | inhibited |  |  | autonomous pacemaking of dopaminergic neurons ([1]; tissue slice from an adult, FIGS. 1a-d): inhibits autonomous pacemaking |
| C#CCN[C@@H]1CCc2ccccc21 [rasagiline] |  | dose-dependent | diminished; also recorded: further lowers stress | mitochondrial oxidant stress in SNc dopaminergic neurons, acute treatment (SNc DA neurons [3]): lowers mitochondrial oxidant stress; calcium entry linked to pacemaking (intracellular calcium oscillations) (SNc dopaminergic neurons [4]): no effect; pacemaking of SNc dopaminergic neurons (SNc dopaminergic neurons [5]): no effect on pacemaking |
| NC1=N[C@H](O)[C@H]2[C@H]3O[C@]4(O)O[C@@H]([C@@H](O)[C@@]2(N1)[C@@H]4O)[C@]3(O)CO [tetrodotoxin] |  |  |  | spikes and underlying oscillations that drive pacemaking [1]: eliminates spikes but not the underlying oscillations |

Source: patent US9463186B2, “Treatment for dopaminergic disorders” (Northwestern University, priority 2013, dated 2016)
